Here are results for 11 compounds from patent US9090669B2, “Short fatty acid tail polymyxin derivatives and uses thereof” (priority 2008, dated 2015).

Data set [1] in a line: Basic pharmacokinetics after i.v. bolus in rats. The data set is classed as in vivo, rat (Sprague-Dawley). The note with it: rat. How it is done:
Blood samples were centrifuged to obtain plasma. […] Plasma and urine samples were stored at −80° C. […] NAB 741 was eluted at 6.65±0.05 min and NAB739 was eluted at 9.45±0.05 min.

Data set [2] has as its system E. coli (ATCC25922 and IH3080), K. pneumoniae ATCC13883, and E. cloacae ATCC23355. The data set is classed as cell-based. The settings on record: all four strains; NAB741 alone. The protocol:
MICs were determined by using E-strips (Biodisk Ltd., Solna, Sweden) according to the manufacturer's instructions.

The test system of another data set is Ac. baumannii F264. Description: E-test MIC of antibacterial agents on Mueller-Hinton agar with or without NAB741. In kind it is cell-based. The note with it: Acinetobacter baumannii; A. baumannii F264 (meropenem-resistant); meropenem alone; read-out: MIC of meropenem at NAB 741 concn 0 μg/ml. The text has this:
(§1) Five of the strains originated from ATCC. Acinetobacter baumannii F264 was purchased from Mobidiag Ltd., Helsinki, Finland. The source of E. coli IH3080 has been given in Example 2.
(§2) Sensitization factor was defined as in Example 4. NAB7061 sensitized the meropenem-resistant strain F264 to meropemen by a factor >4.

Another data set deals with Ac. baumannii ATCC19606. The description is as above. The data set is classed as cell-based. The note with it: Acinetobacter baumannii; A. baumannii ATCC19606; meropenem alone; read-out: MIC of meropenem at NAB 741 concn 0 μg/ml.
Text: as §1, §2

The conditions of data set [3]: rat, in vivo; cited from earlier work.
For a further data set, the system named is E. coli IH3080. The data set is described as follows: Agar well growth inhibition on LB plates with or without rifampin. In kind it is cell-based, Escherichia coli. The note with it: well containing 4 micrograms of the compound; for Activity w. rifampin: growth inhibition around a well: LB plate containing rifampin 0.1 micrograms/ml; for Direct activity: growth inhibition around a well: LB plates.

Another data set has as its system bacteria. The settings on record: Sakura et al. (2004); cited from earlier work.

Where two headings read alike, the source gives them in different places. Positions of bridges follow the written chain, without caps; N, C: chain ends. Non-standard residues stand in square brackets, D forms with d. Residues, ends and D or L forms follow the SMILES beside them. *: point of attachment. Octanoyl = CCCCCCCC(=O)*; Dab = NCC[C@H](N)C(=O)O

In data set [1] (acetate 1 mg/kg i.v. bolus), `CCCCCCCC(=O)N[C@H](C(=O)N[C@H](CO)C(=O)N[C@H]1CCNC(=O)[C@H]([C@@H](C)O)NC(=O)[C@H](CCN)NC(=O)[C@H](CCN)NC(=O)[C@H](CC(C)C)NC(=O)[C@@H](Cc2ccccc2)NC(=O)[C@H](CCN)NC1=O)[C@@H](C)O` [NAB 739] (Octanoyl-T[dS][Dab][Dab][dF]L[Dab][Dab]T; lactam 3-C) had a clearance of 2.63 ± 0.54 mL/min/kg, a renal clearance of 0.53 ± 0.30 mL/min/kg and a volume of distribution of 0.222 ± 0.0205 L/kg. In data set [1] (acetate 1 mg/kg i.v. bolus, plasma), this compound showed a half-life of 1.15 ± 0.365 h.

Turning to `CC(=O)N[C@H](C(=O)N[C@H](CO)C(=O)N[C@H]1CCNC(=O)[C@H]([C@@H](C)O)NC(=O)[C@H](CCN)NC(=O)[C@H](CCN)NC(=O)[C@H](CC(C)C)NC(=O)[C@@H](Cc2ccccc2)NC(=O)[C@H](CCN)NC1=O)[C@@H](C)O` [NAB 741, acetyl-Thr-DSer-cy[Dab-Dab-DPhe-Leu-Dab-Dab-Thr-]] (Ac-T[dS][Dab][Dab][dF]L[Dab][Dab]T; lactam 3-C (inferred)), in data set [2], the “MIC of NAB741” value was above 16 µg/mL. Further, in data set [1] (in vivo, iv, 1 mg/kg), the urinary recovery is listed as 50.9±13.6 % of dose in 24 h and the volume of distribution stood at 0.243 ± 0.024 L/kg.

`C[C@@H](O)[C@H]1C(=O)N2C(C(=O)O)=C(S[C@@H]3CN[C@H](C(=O)N(C)C)C3)[C@H](C)[C@H]12` [meropenem]: the results for the MIC in the data set with Ac. baumannii F264 and in the data set with Ac. baumannii ATCC19606 were above 32 µg/mL and 0.75 µg/mL, respectively.

Consider Colistin (polymyxin E), for which, in data set [3], the clearance is 5.2 ± 0.4 mL/min/kg, the half-life is 1.24 ± 0.22 h, the renal clearance is 0.010 ± 0.008 mL/min/kg and the volume of distribution was 0.496 ± 0.06 L/kg.

For the compound Deacylcolistin, in the data set on E. coli IH3080, the “Activity w. rifampin: growth inhibition around a well” value amounted to 87 square millimeters and the “Direct activity: growth inhibition around a well” value came out at 79 square millimeters.

Turning to Deacylpolymyxin B, in the data set on E. coli IH3080, the “Activity w. rifampin: growth inhibition around a well” value is listed as 79 square millimeters and the “Direct activity: growth inhibition around a well” value turned out to be 57 square millimeters.

For the compound Polymyxin B, in the data set with E. coli IH3080, the “Activity w. rifampin: growth inhibition around a well” value is listed as 95 square millimeters and the “Direct activity: growth inhibition around a well” value worked out at 79 square millimeters.

Consider Polymyxin B heptapeptide, for which, in the data set with E. coli IH3080, the “Activity w. rifampin: growth inhibition around a well” value came to 0 square millimeters and the “Direct activity: growth inhibition around a well” value is listed as 0 square millimeters.

Turning to “Polymyxin B nonapeptide [Polymyxin B nonpeptide]”, in the data set on E. coli IH3080, the “Activity w. rifampin: growth inhibition around a well” value is listed as 20 square millimeters and the “Direct activity: growth inhibition around a well” value is recorded as 0 square millimeters.

For “acetyl-Thr-DAsn-cy[Dab-Dab-DPhe-Leu-Dab-Dab-Thr-] [NAB 745]”, in the data set on E. coli IH3080, the “Activity w. rifampin: growth inhibition around a well” value turned out to be 50 square millimeters and the “Direct activity: growth inhibition around a well” value worked out at 0 square millimeters.

As to “octanoyl polymyxin B heptapeptide [Octanoyl PMBH]”, the “Concentration that inhibits the growth of bacteria” value in the data set with bacteria is 128 µg/mL. Besides, in the data set on E. coli IH3080, the “Activity w. rifampin: growth inhibition around a well” value amounted to 0 square millimeters and the “Direct activity: growth inhibition around a well” value was 0 square millimeters.

What is called clearance is the volume of plasma or blood freed of the substance per unit of time. Usually half-life stands for the time needed for the level to fall by half in the phase considered.
